In patent US8394952B2 (Vertex Pharmaceuticals Incorporated, priority 2006, dated 2013) one finds Ki data, which are given here for 29 molecules.

For this assay, the target named is Plk1 (Homo sapiens, UniProt P53350). As to the kind of experiment: biochemical.
Plk1, sequence (P53350 20-338): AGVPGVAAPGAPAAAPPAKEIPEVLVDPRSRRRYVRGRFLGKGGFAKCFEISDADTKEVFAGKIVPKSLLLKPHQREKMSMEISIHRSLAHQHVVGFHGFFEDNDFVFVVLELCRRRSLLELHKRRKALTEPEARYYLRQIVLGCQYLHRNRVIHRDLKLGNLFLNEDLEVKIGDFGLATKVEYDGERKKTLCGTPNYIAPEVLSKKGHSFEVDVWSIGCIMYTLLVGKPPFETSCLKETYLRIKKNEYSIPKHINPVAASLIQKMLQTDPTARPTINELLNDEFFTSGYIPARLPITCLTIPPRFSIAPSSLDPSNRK
On to `CC(=O)Nc1cccc(Nc2ncc3c(n2)N(C2CCCC2)CC(C)(C)C(=O)N3C)c1` [Compound I-111, N-(3-(9-cyclopentyl-6,7,8,9-tetrahydro-5,7,7-trimethyl-6-oxo-5H-pyrimido[4,5-b][1,4]diazepin-2-ylamino)phenyl)acetamide], for which the Ki was 10 to 100 nM.
Turning to `CC(=O)Nc1ccc(Nc2ncc3c(n2)N(C2CCCC2)CC(C)(C)C(=O)N3C)cc1` [Compound I-112, N-(4-(9-cyclopentyl-6,7,8,9-tetrahydro-5,7,7-trimethyl-6-oxo-5H-pyrimido[4,5-b][1,4]diazepin-2-ylamino)phenyl)acetamide], the Ki lay in the range of 10 to 100 nM.
In the case of `CC[C@H]1CN(C2CCCC2)c2nc(Nc3ccc(C(=O)NC4CCN(C)CC4)cc3OC)ncc2N(C)C1=O` [Compound I-113, 4-((S)-9-cyclopentyl-7-ethyl-6,7,8,9-tetrahydro-5-methyl-6-oxo-5H-pyrimido[4,5-b][1,4]diazepin-2-ylamino)-3-methoxy-N-(1-methylpiperidin-4-yl)benzamide] it was less than 10 nM; in that of `CN1C(=O)C(C)(C)CN(C2CCCC2)c2nc(Nc3ccc4[nH]ncc4c3)ncc21` [Compound I-114, 2-(1H-indazo-5-ylamino)-9-cyclopentyl-8,9-dihydro-5,7,7-trimethyl-5H-pyrimido[4,5-b][1,4]diazepin-6(7H)-one], 10 to 100 nM.
`CN1C(=O)C(C)(C)CN(C2CCCC2)c2nc(Nc3cccc(N)c3)ncc21` [Compound I-116, 2-(3-aminophenylamino)-9-cyclopentyl-8,9-dihydro-5,7,7-trimethyl-5H-pyrimido[4,5-b][1,4]diazepin-6(7H)-one] returned a Ki of 10 to 100 nM.
With `CN1C(=O)C(C)(C)CN(C2CCCC2)c2nc(Nc3ccc(N)cc3)ncc21` [Compound I-117, 2-(4-aminophenylamino)-9-cyclopentyl-8,9-dihydro-5,7,7-trimethyl-5H-pyrimido[4,5-b][1,4]diazepin-6(7H)-one], the Ki was in the range of 10 to 100 nM.
`CCc1cc(C(=O)NC)ccc1Nc1ncc2c(n1)N(C1CCCC1)CC(C)(C)C(=O)N2C` [Compound I-118, 4-(9-cyclopentyl-6,7,8,9-tetrahydro-5,7,7-trimethyl-6-oxo-5H-pyrimido[4,5-b][1,4]diazepin-2-ylamino)-3-ethyl-N-methylbenzamide] showed a Ki of less than 10 nM.
Regarding `CC[C@H]1CN(C2CCCC2)c2nc(Nc3ccc(C(=O)NC4CCC4)cc3OC)ncc2N(C)C1=O` [Compound I-119, 4-((S)-9-cyclopentyl-7-ethyl-6,7,8,9-tetrahydro-5-methyl-6-oxo-5H-pyrimido[4,5-b][1,4]diazepin-2-ylamino)-N-cyclobutyl-3-methoxybenzamide], the Ki was less than 10 nM.
In the case of `COc1cc(C(=O)O)ccc1Nc1ncc2c(n1)N(C1CCCC1)CC(C)(C)C(=O)N2C` [Compound I-120, 4-(9-cyclopentyl-6,7,8,9-tetrahydro-5,7,7-trimethyl-6-oxo-5H-pyrimido[4,5-b][1,4]diazepin-2-ylamino)-3-methoxybenzoic acid] it was 10 to 100 nM; in that of `CNC(=O)c1ccc(Nc2ncc3c(n2)N(Cc2ccccc2)CC(C)(C)C(=O)N3C)c(OC)c1` [Compound I-122, 4-(9-benzyl-6,7,8,9-tetrahydro-5,7,7-trimethyl-6-oxo-5H-pyrimido[4,5-b][1,4]diazepin-2-ylamino)-3-methoxy-N-methylbenzamide], 10 to 100 nM; in that of `CNC(=O)c1ccc(Nc2ncc3c(n2)N(CC2CCC2)CC(C)(C)C(=O)N3C)c(OC)c1` [Compound I-123, 4-(9-(cyclobutylmethyl)-6,7,8,9-tetrahydro-5,7,7-trimethyl-6-oxo-5H-pyrimido[4,5-b][1,4]diazepin-2-ylamino)-3-methoxy-N-methylbenzamide], less than 10 nM.
Consider `CN1C(=O)C(C)(C)CN(C2CCCC2)c2nc(Nc3cccc4c3CNC4=O)ncc21` [Compound I-124, 2-(1-oxoisoindolin-4-ylamino)-9-cyclopentyl-8,9-dihydro-5,7,7-trimethyl-5H-pyrimido[4,5-b][1,4]diazepin-6(7H)-one], for which the Ki fell in the range of 10 to 100 nM.
For `CN1C(=O)Cc2cc(Nc3ncc4c(n3)N(C3CCCC3)CC(C)(C)C(=O)N4C)ccc21` [Compound I-125, 2-(1-methyl-2-oxoindolin-5-ylamino)-9-cyclopentyl-8,9-dihydro-5,7,7-trimethyl-5H-pyrimido[4,5-b][1,4]diazepin-6(7H)-one] the value was 10 to 100 nM; for `COc1cc(C(=O)NC2CCCC2)ccc1Nc1ncc2c(n1)N(C1CCCC1)CC(C)(C)C(=O)N2C` [Compound I-129, 4-(9-cyclopentyl-6,7,8,9-tetrahydro-5,7,7-trimethyl-6-oxo-5H-pyrimido[4,5-b][1,4]diazepin-2-ylamino)-N-cyclopentyl-3-methoxybenzamide], less than 10 nM; for `COc1cc(C(=O)NC(C)(C)C)ccc1Nc1ncc2c(n1)N(C1CCCC1)CC(C)(C)C(=O)N2C` [Compound I-130, 4-(9-cyclopentyl-6,7,8,9-tetrahydro-5,7,7-trimethyl-6-oxo-5H-pyrimido[4,5-b][1,4]diazepin-2-ylamino)-N-tert-butyl-3-methoxybenzamide], less than 10 nM.
In the case of `COc1cc(C(=O)NCC2CC2)ccc1Nc1ncc2c(n1)N(C1CCCC1)CC(C)(C)C(=O)N2C` [Compound I-131, 4-(9-cyclopentyl-6,7,8,9-tetrahydro-5,7,7-trimethyl-6-oxo-5H-pyrimido[4,5-b][1,4]diazepin-2-ylamino)-N-(cyclopropylmethyl)-3-methoxybenzamide] it was less than 10 nM; in that of `COc1cc(C(=O)NCCC(F)(F)F)ccc1Nc1ncc2c(n1)N(C1CCCC1)CC(C)(C)C(=O)N2C` [Compound I-132, 4-(9-cyclopentyl-6,7,8,9-tetrahydro-5,7,7-trimethyl-6-oxo-5H-pyrimido[4,5-b][1,4]diazepin-2-ylamino)-N-(3,3,3-trifluoropropyl)-3-methoxybenzamide], less than 10 nM.
In the case of `COc1cc(C(=O)NC2CCCCC2)ccc1Nc1ncc2c(n1)N(C1CCCC1)CC(C)(C)C(=O)N2C` [Compound I-133, 4-(9-cyclopentyl-6,7,8,9-tetrahydro-5,7,7-trimethyl-6-oxo-5H-pyrimido[4,5-b][1,4]diazepin-2-ylamino)-N-cyclohexyl-3-methoxybenzamide] it was less than 10 nM; in that of `COc1cc(C(=O)NC2CCOCC2)ccc1Nc1ncc2c(n1)N(C1CCCC1)CC(C)(C)C(=O)N2C` [Compound I-134, 4-(9-cyclopentyl-6,7,8,9-tetrahydro-5,7,7-trimethyl-6-oxo-5H-pyrimido[4,5-b][1,4]diazepin-2-ylamino)-N-(tetrahydro-2H-pyran-4-yl)-3-methoxybenzamide], less than 10 nM; in that of `CCOc1cc(C(=O)NC2CCN(C(C)C)CC2)ccc1Nc1ncc2c(n1)N(C1CCCC1)CC(C)(C)C(=O)N2C` [Compound I-135, 4-(9-cyclopentyl-6,7,8,9-tetrahydro-5,7,7-trimethyl-6-oxo-5H-pyrimido[4,5-b][1,4]diazepin-2-ylamino)-3-ethoxy-N-(1-isopropylpiperidin-4-yl)benzamide], less than 10 nM.
On to `COc1cc(C(=O)NC(C)(CO)CO)ccc1Nc1ncc2c(n1)N(C1CCCC1)CC(C)(C)C(=O)N2C` [Compound I-136, 4-(9-cyclopentyl-6,7,8,9-tetrahydro-5,7,7-trimethyl-6-oxo-5H-pyrimido[4,5-b][1,4]diazepin-2-ylamino)-N-(1,3-dihydroxy-2-methylpropan-2-yl)-3-methoxybenzamide], for which the Ki is less than 10 nM.
For `CN1C(=O)C(C)(C)CN(C2CCCC2)c2nc(Nc3cccc(-c4cc[nH]n4)c3)ncc21` [Compound I-137, 2-(3-(1H-pyrazol-3-yl)phenylamino)-9-cyclopentyl-8,9-dihydro-5,7,7-trimethyl-5H-pyrimido[4,5-b][1,4]diazepin-6(7H)-one] the value was 10 to 100 nM; for `CN1C(=O)C(C)(C)CN(C2CCCC2)c2nc(Nc3ccc4c(c3)CCN4S(C)(=O)=O)ncc21` [Compound I-138, 9-Cyclopentyl-2-(1-methanesulfonyl-2,3-dihydro-1H-indol-5-ylamino)-5,7,7-trimethyl-5,7,8,9-tetrahydro-pyrimido[4,5-b][1,4]diazepin-6-one], 10 to 100 nM; for `CN1C(=O)C(C)(C)CN(C2CCCC2)c2nc(Nc3ccc4c(c3)C(=O)C(=O)N4)ncc21` [Compound I-139, 5-(9-Cyclopentyl-6,7,8,9-tetrahydro-5,7,7-trimethyl-6-oxo-5H-pyrimido[4,5-b][1,4]diazepin-2-ylamino)indoline-2,3-dione], 10 to 100 nM.
In the case of `CN1C(=O)C(C)(C)CN(C2CCCC2)c2nc(Nc3cccc(C(=O)NC4CCOCC4)c3)ncc21` [Compound I-141, 3-(9-Cyclopentyl-6,7,8,9-tetrahydro-5,7,7-trimethyl-6-oxo-5H-pyrimido[4,5-b][1,4]diazepin-2-ylamino)-N-(tetrahydro-2H-pyran-4-yl)benzamide] it was 10 to 100 nM.
Regarding `CN1C(=O)C(C)(C)CN(C2CCCC2)c2nc(Nc3cccc(C(=O)NC4CN(C(=O)OC(C)(C)C)C4)c3)ncc21` [Compound I-143, 3-[3-(9-Cyclopentyl-5,7,7-trimethyl-6-oxo-6,7,8,9-tetrahydro-5H-pyrimido[4,5-b][1,4]diazepin-2-ylamino)-benzoylamino]-azetidine-1-carboxylic acid tert-butyl ester], the Ki was in the range of 10 to 100 nM.
In the case of `COCCNC(=O)c1cccc(Nc2ncc3c(n2)N(C2CCCC2)CC(C)(C)C(=O)N3C)c1` [Compound I-144, 3-(9-Cyclopentyl-6,7,8,9-tetrahydro-5,7,7-trimethyl-6-oxo-5H-pyrimido[4,5-b][1,4]diazepin-2-ylamino)-N-(2-methoxyethyl)benzamide] it was 10 to 100 nM; in that of `CN1C(=O)C(C)(C)CN(C2CCCC2)c2nc(Nc3cccc(NC(=O)CC(F)(F)F)c3)ncc21` [Compound I-145], 10 to 100 nM; in that of `COCC(=O)Nc1cccc(Nc2ncc3c(n2)N(C2CCCC2)CC(C)(C)C(=O)N3C)c1` [Compound I-147, N-(3-(9-Cyclopentyl-6,7,8,9-tetrahydro-5,7,7-trimethyl-6-oxo-5H-pyrimido[4,5-b][1,4]diazepin-2-ylamino)phenyl)-2-methoxyacetamide], 10 to 100 nM.

As usually defined, the Ki is the equilibrium dissociation constant of an inhibitor or competing ligand from its target.
